Results as given in patent US6790843B1, “C-19-halogen-substituted steroids of the androst-9(11)-ene-series, methods for the production and use thereof” (Schering AG, priority 1999, dated 2004).

Assays:
[1] = target: T1, human androgen receptor (Homo sapiens, UniProt P10275); test: binding affinity to the androgen receptor (reference standard 3H-methyltrienolone R 1881)
T1 sequence (P10275 1-920): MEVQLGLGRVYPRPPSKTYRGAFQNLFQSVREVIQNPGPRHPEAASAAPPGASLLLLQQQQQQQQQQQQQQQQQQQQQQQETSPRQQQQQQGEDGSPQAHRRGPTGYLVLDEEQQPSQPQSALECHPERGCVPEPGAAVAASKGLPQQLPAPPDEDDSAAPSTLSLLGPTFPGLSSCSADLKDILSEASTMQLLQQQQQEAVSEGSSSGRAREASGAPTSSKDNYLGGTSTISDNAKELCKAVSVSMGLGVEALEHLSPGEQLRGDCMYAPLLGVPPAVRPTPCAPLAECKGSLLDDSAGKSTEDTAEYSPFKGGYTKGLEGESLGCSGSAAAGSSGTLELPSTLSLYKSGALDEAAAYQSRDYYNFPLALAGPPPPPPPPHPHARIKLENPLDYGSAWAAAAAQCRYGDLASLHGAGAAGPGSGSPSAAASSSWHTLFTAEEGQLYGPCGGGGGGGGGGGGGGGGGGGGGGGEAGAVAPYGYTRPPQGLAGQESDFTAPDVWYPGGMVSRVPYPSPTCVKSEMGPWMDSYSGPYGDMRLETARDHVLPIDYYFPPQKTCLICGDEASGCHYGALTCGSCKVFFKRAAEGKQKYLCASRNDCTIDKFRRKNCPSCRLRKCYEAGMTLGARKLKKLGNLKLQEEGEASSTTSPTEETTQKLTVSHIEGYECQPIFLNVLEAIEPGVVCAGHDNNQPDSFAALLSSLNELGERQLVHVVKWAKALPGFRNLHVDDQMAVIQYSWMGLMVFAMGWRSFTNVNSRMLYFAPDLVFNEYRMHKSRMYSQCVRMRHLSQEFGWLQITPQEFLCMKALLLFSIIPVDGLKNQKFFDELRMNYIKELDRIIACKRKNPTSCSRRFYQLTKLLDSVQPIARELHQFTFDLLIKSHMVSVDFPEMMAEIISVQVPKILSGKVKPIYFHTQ

melting point | SMILES | affinity to the androgen receptor (in words) [1] | IC50 [1]
126 °C | CCCCCCCSCC[C@]12CC[C@@H]3C(=CC[C@]4(C)[C@@H](O)CC[C@@H]34)[C@@]1(C)CC[C@H](O)C2 | – | –
212 °C | CCn1ccnc1SCC[C@]12CC[C@@H]3C(=CC[C@]4(C)[C@@H](O)CC[C@@H]34)[C@@]1(C)CC[C@H](O)C2 | – | –
– | C[C@]12CC=C3[C@@H](CCC4=CC(=O)CC[C@@]43CI)[C@@H]1CC[C@@H]2O [iodide 6, 17β-Hydroxy-19-iodo-androsta-4,9(11)-dien-3-one] | high affinity | 57 nM

SMILES | melting point | affinity to the androgen receptor (in words) [1] | IC50 [1]
C[C@]12CC=C3[C@@H](CCC4=CC(=O)CC[C@@]43CBr)[C@@H]1CC[C@@H]2O [Example 2, 19-Bromo-17β-hydroxy-androsta-4,9(11)-dien-3-one] | 149 °C (dec.) | high affinity | –
